Measured values from patent US11760773B2, “Small molecule drug conjugates of gemcitabine monophosphate” (MaveriX Oncology, Inc., priority 2018, dated 2023).
Where two headings read alike, the source gives them in different places.

Experiments:
[1] = Comparative plasma PK of Compound 1 versus Int 1-4 in male CD-1 mice (study b); type: in vivo; details: male, CD-1, mouse, iv; for Cmax: read-out: Cmax; for Tmax: read-out: Tmax
Experimental: Objectives: to compare the plasma pharmacokinetics and stability of Compound 1 with its non-phosphorylated SMDC analog (Int 1-4) and in plasma following a single intravenous infusion administration of Compound 1 at 11.6 mg/kg and 23.2 mg/kg with Int 1-4 (formulation F1 & F2) at 10.0 mg/kg in male CD-1 mice
PK measurements: compare PK parameters C0, CL, Vdss, Cmax, tmax, t1/2, AUC(0-t), AUC(0-inf), MRT(0-t), MRT(0-inf) for Compound 1 and Int 1-4

[2] = Comparative dog plasma PK of Int 1-4 versus gemcitabine (study k); type: in vivo; details: male beagle dog; for AUC(0-inf): read-out: AUC0-inf; for MRT inf: read-out: MRT0-inf; for MRT last: read-out: MRT0-last; for Vd: read-out: Vdss
Experimental: Objectives: to compare the plasma pharmacokinetics and stability of Int-4 in plasma following single intravenous infusion administration of Int 1-4 at 5 mg/kg and 10 mg/kg versus gemcitabine at 5 mg/kg in the male Beagle dog

[3] = Int 1-4 dog plasma PK (study j); type: in vivo; details: male beagle dog; for AUC(0-inf): read-out: AUC0-inf; for MRT inf: read-out: MRT0-inf; for MRT last: read-out: MRT0-last; for Vd: read-out: Vdss
Experimental: Objectives: to compare the plasma pharmacokinetics and stability of Int 1-4 in plasma following single intravenous infusion administration of t 1-4 at 10 mg/kg and 20 mg/kg in the male Beagle dog.

[4] = Comparative PK of Int 1-4 versus gemcitabine in rat plasma (study i); type: in vivo, Sprague-Dawley rats; details: Sprague-Dawley rat
Excerpt: PK measurements: compare PK parameters C0, CL, Vdss, Cmax, tmax, t1/2, AUC(0-t), AUC(0-inf), MRT(0-t), MRT(0-inf) for Int 1-4 and gemcitabine.

[5] = Comparative plasma PK of Int 1-4 versus gemcitabine in mouse (study a); type: in vivo; details: CD-1 mice
[6] = Compound 1 and gemcitabine plasma PK in the male cynomolgus monkey (study h); type: in vivo; details: plasma, after iv Compound 1 5 mg/kg
Experimental: Objectives: to compare the plasma pharmacokinetics and stability of the Compound 1 with Int 1-4 and in plasma following a single intravenous infusion administration of Compound 1 at 5 mg/kg and 10 mg/kg with equimolar gemcitabine at 2.28 mg/kg in male cynomolgous monkeys.
PK measurements: compare PK parameters C0, CL, Vdss, Cmax, tmax, t1/2, AUC(0-t), AUC(0-inf), MRT(0-t), MRT(0-inf) for Compound 1 and Int 1-4 with gemcitabine.

[7] = 10 mg/kg, after iv Int 1-4 10.0 mg/kg, Formulation 1
[8] = 10 mg/kg, after iv Int 1-4 10.0 mg/kg, Formulation 2
[9] = 11.6 mg/kg, after iv Compound 1 11.6 mg/kg
[10] = 23.2 mg/kg, after iv Compound 1 23.2 mg/kg
[11] = after iv Int 1-4 5 mg/kg (study k)
[12] = after iv Int 1-4 10 mg/kg (study k)
[13] = after iv Int 1-4 10 mg/kg (study j)
[14] = after iv Int 1-4 20 mg/kg (study j)
[15] = plasma, after iv Int 1-4 10.0 mg/kg
[16] = mouse, plasma, after iv Int 1-4 9.4 mg/kg

AUC(0-t) [1, 7]: 3620 ng·h/mL | C0 [1, 7]: 33800 ng/mL | clearance [1, 7]: 48.3 mL/min/kg | half-life [1, 7]: 70.8 min | AUC(0-inf) ([1]; 10 mg/kg, after iv Int 1-4 10.0 mg/kg, Formulation 1, read-out: AUC0-inf): 3630 ng·h/mL | MRT inf ([1]; 10 mg/kg, after iv Int 1-4 10.0 mg/kg, Formulation 1, read-out: MRT0-inf): 45.4 min | MRT last ([1]; 10 mg/kg, after iv Int 1-4 10.0 mg/kg, Formulation 1, read-out: MRT0-last): 43.4 min | Vd ([1]; 10 mg/kg, after iv Int 1-4 10.0 mg/kg, Formulation 1, read-out: Vdss): 2.01 L/kg | AUC(0-t) [1, 8]: 4210 ng·h/mL | C0 [1, 8]: 43000 ng/mL | clearance [1, 8]: 38.9 mL/min/kg | half-life [1, 8]: 109 min | AUC(0-inf) ([1]; 10 mg/kg, after iv Int 1-4 10.0 mg/kg, Formulation 2, read-out: AUC0-inf): 4290 ng·h/mL | MRT inf ([1]; 10 mg/kg, after iv Int 1-4 10.0 mg/kg, Formulation 2, read-out: MRT0-inf): 59 min | MRT last ([1]; 10 mg/kg, after iv Int 1-4 10.0 mg/kg, Formulation 2, read-out: MRT0-last): 47.8 min | Vd ([1]; 10 mg/kg, after iv Int 1-4 10.0 mg/kg, Formulation 2, read-out: Vdss): 2.3 L/kg | AUC(0-t) [1, 9]: 2570 ng·h/mL | half-life [1, 9]: 58.4 min | AUC(0-inf) ([1]; 11.6 mg/kg, after iv Compound 1 11.6 mg/kg, read-out: AUC0-inf): 2610 ng·h/mL | Cmax [1, 9]: 20000 ng/mL | MRT inf ([1]; 11.6 mg/kg, after iv Compound 1 11.6 mg/kg, read-out: MRT0-inf): 40.4 min | MRT last ([1]; 11.6 mg/kg, after iv Compound 1 11.6 mg/kg, read-out: MRT0-last): 33.2 min | Tmax [1, 9]: 1.5 min | AUC(0-t) [1, 10]: 6370 ng·h/mL | half-life [1, 10]: 55.8 min | AUC(0-inf) ([1]; 23.2 mg/kg, after iv Compound 1 23.2 mg/kg, read-out: AUC0-inf): 6380 ng·h/mL | Cmax [1, 10]: 29900 ng/mL | MRT inf ([1]; 23.2 mg/kg, after iv Compound 1 23.2 mg/kg, read-out: MRT0-inf): 47.6 min | MRT last ([1]; 23.2 mg/kg, after iv Compound 1 23.2 mg/kg, read-out: MRT0-last): 46.7 min | Tmax [1, 10]: 1.5 min | AUC(0-t) [2, 11]: 2700 ng·h/mL | C0 [2, 11]: 40000 ng/mL | clearance [2, 11]: 30.8 mL/min/kg | half-life [2, 11]: 15 min | AUC(0-inf) [2, 11]: 2730 ng·h/mL | Cmax ([2]; after iv Int 1-4 5 mg/kg (study k), read-out: Cmax): 30500 ng/mL | MRT inf [2, 11]: 7.2 min | MRT last [2, 11]: 6.6 min | Vd [2, 11]: 0.23 L/kg | AUC(0-t) [2, 12]: 7930 ng·h/mL | C0 [2, 12]: 90900 ng/mL | clearance [2, 12]: 43.3 mL/min/kg | half-life [2, 12]: 31.2 min | AUC(0-inf) [2, 12]: 7940 ng·h/mL | MRT inf [2, 12]: 13.8 min | MRT last [2, 12]: 13.2 min | Vd [2, 12]: 0.58 L/kg | AUC(0-t) [3, 13]: 4730 ng·h/mL | C0 [3, 13]: 60500 ng/mL | clearance [3, 13]: 35.2 mL/min/kg | half-life [3, 13]: 32.4 min | AUC(0-inf) [3, 13]: 4740 ng·h/mL | MRT inf [3, 13]: 14.4 min | MRT last [3, 13]: 13.8 min | Vd [3, 13]: 0.504 L/kg | AUC(0-t) [3, 14]: 7930 ng·h/mL | C0 [3, 14]: 90900 ng/mL | clearance [3, 14]: 43.3 mL/min/kg | half-life [3, 14]: 31.2 min | AUC(0-inf) [3, 14]: 7940 ng·h/mL | MRT inf [3, 14]: 13.8 min | MRT last [3, 14]: 13.2 min | Vd [3, 14]: 0.58 L/kg | stability in the rat (based on Cmax and AUC of free gemcitabine in plasma) ([4]; iv Int 1-4): unstable | half-life ([4]; Sprague-Dawley, rat, plasma, iv, 10 mg/kg, plasma, after iv Int 1-4 10.0 mg/kg): 19.1 min | AUC0-inf/AUC0-last [4, 15]: 101% | AUC(0-inf) [4, 15]: 2010 ng·h/mL | AUC(0-t) [4, 15]: 1990 ng·h/mL | C0 [4, 15]: 29400 ng/mL | clearance [4, 15]: 82.3 mL/min/kg | MRT inf ([4]; plasma, after iv Int 1-4 10.0 mg/kg, read-out: MRT0-inf): 11.1 min | MRT last ([4]; plasma, after iv Int 1-4 10.0 mg/kg, read-out: MRT0-last): 10.3 min | Vd ([4]; plasma, after iv Int 1-4 10.0 mg/kg, read-out: Vdss): 0.905 L/kg | plasma clearance and tissue uptake ([5]; after iv Int 1-4): quickly clears the plasma | AUC(0-t) [5, 16]: 4980 ng·h/mL | C0 [5, 16]: 78000 ng/mL | clearance [5, 16]: 27.1 mL/min/kg | half-life [5, 16]: 63.6 min | AUC(0-inf) ([5]; mouse, plasma, after iv Int 1-4 9.4 mg/kg, read-out: AUC0-inf): 5000 ng·h/mL | MRT inf ([5]; mouse, plasma, after iv Int 1-4 9.4 mg/kg, read-out: MRT0-inf): 20.8 min | MRT last ([5]; mouse, plasma, after iv Int 1-4 9.4 mg/kg, read-out: MRT0-last): 19.7 min | Vd ([5]; mouse, plasma, after iv Int 1-4 9.4 mg/kg, read-out: Vdss): 0.566 L/kg | AUC0-inf/AUC0-last ([5]; plasma, after iv Int 1-4 9.4 mg/kg): 100% | AUC(0-t) [6]: 4380 ng·h/mL | half-life [6]: 45.6 min | AUC(0-inf) ([6]; read-out: AUC0-inf): 4400 ng·h/mL | MRT inf ([6]; read-out: MRT0-inf): 22.2 min | MRT last ([6]; read-out: MRT0-last): 21.6 min
SMILES: COc1cc(OC)c2oc(COC(=O)Nc3ccn([C@@H]4O[C@H](CO)[C@@H](O)C4(F)F)c(=O)n3)cc2c1 [Int 1-4, (5,7-di(methoxy)benzofuran-2-yl)methyl (1-((2R,4R,5R)-3,3-difluoro-4-hydroxy-5-(hydroxymethyl)tetrahydrofuran-2-yl)-2-oxo-1,2-dihydropyrimidin-4-yl)carbamate]
